# Measured values as given in patent publication US11696914B1 (priority 2019, dated 2023).
# Read-outs that look alike come from different tables or passages of the source.
# Columns and labels:
# [1] = test system: Vesicular Stomatitis Virus (VSV) pseudotyped with EBOV glycoprotein; test: microbe, parasite or virus in culture; assay type: cell-based, Ebola virus; details: HeLa, read-out: IC50, inhibition of EBOV-VSV pseudovirus entry
# [2] = test system: Marburg virus (MARV), Musoke strain; test: organism not typed; assay type: cell-based; details: HeLa; n=6; read-out: IC50 ± SEM versus MARV Musoke strain
# [3] = test system: Ebola virus/H.sapiens-tc/COD/1995/Kikwit-9510621 (EBOV/Kik); test: microbe, parasite or virus in culture; assay type: cell-based; details: Zaire ebolavirus, HeLa
# [4] = test system: Ebola virus/H.sapiens-tc/GIN/2014/Makona-005 (EBOV/Mak); test: microbe, parasite or virus in culture; assay type: cell-based; details: Zaire ebolavirus, HeLa
# [5] = test system: Ebola virus/H.sapiens-tc/COD/1976/Yambuku-Mayinga (EBOV/May); test: microbe, parasite or virus in culture; assay type: cell-based; details: Zaire ebolavirus, HeLa
# [6] = test system: Marburg virus/H.sapiens-tc/AGO/2005/Ang-1379v (MARV/Ang); test: organism not typed; assay type: cell-based; details: HeLa
# [7] = test system: Marburg virus/H.sapiens-tc/KEN/1980/Mt. Elgon-Musoke (MARV/Mus); test: organism not typed; assay type: cell-based; details: HeLa
# [8] = test system: Chikungunya virus; test: microbe, parasite or virus in culture; assay type: cell-based; details: Vero 76
# [9] = test system: Ebola virus; test: microbe, parasite or virus in culture; assay type: cell-based; details: Zaire ebolavirus, Vero 76
# [10] = test system: Venezuelian equine encephalitis virus; test: microbe, parasite or virus in culture; assay type: cell-based; details: Venezuelan equine encephalitis virus, Vero 76
# [11] = test system: EBOV Zaire; test: microbe, parasite or virus in culture; assay type: cell-based, Ebola virus; details: Zaire ebolavirus, HeLa
# [12] = test system: SARS-CoV-2; test: microbe, parasite or virus in culture; assay type: cell-based
# [13] = test system: murine hepatitis virus (MHV); test: microbe, parasite or virus in culture; assay type: cell-based; details: Murine coronavirus, read-out: IC50 versus murine hepatitis virus (MHV)
# [14] = target: SARS-CoV-2 Spike RBD (Severe acute respiratory syndrome coronavirus 2, UniProt P0DTC2); assay type: binding
# [15] = test system: HeLa cells; details: human
# [16] = mouse, microsomes
# [17] = guinea pig, microsomes
# [18] = microsomes
# [19] = human, microsomes
# [20] = mouse, microsomes, 1 h, pH 7.4
# [21] = guinea pig, pH 7.4
# [22] = human, microsomes, 1 h, pH 7.4
# [23] = in vitro; details: African green monkey
# [24] = in vitro; details: human
smiles,measurement,setting,value
CCN(CC)CCCC(C)Nc1c2ccc(Cl)cc2nc2ccc(OC)cc12 (stereo not drawn) [Quinacrine],IC50,[1],970 nM
same,IC50,[2],775 ± 283 nM
same,IC50,[3],1410 ± 250 nM
same,IC50,[4],1050 ± 260 nM
same,IC50,[5],1480 ± 650 nM
same,IC50,[6],2940 ± 760 nM
same,IC50,[7],1570 ± 170 nM
same,EC50,[8],3.2 µM
same,EC50,[9],> 12.3 µM
same,EC50,[10],4 µM
same,EC50,[11],350 nM
same,IC50,"[12]; Severe acute respiratory syndrome coronavirus 2, A549-ACE2, read-out: IC50 against SARS-CoV-2",< 200 nM
same,IC50,[12]; read-out: IC50 against SARS-CoV-2,~122 nM
same,IC50,[13],2300 nM
same,binding to SARS-CoV-2 Spike RBD,[14],did not demonstrate reproducible binding
same,CC50,[15],8.62 ± 0.02 µM
same,Clint,[16],110.0
same,"Dextromethorphan: compound, t1/2 normalized to dextromethorphan control",[16],0.8
same,t1/2,[16],12.6 min
same,Clint,[17],81.3
same,"Dextromethorphan: compound, t1/2 normalized to dextromethorphan control",[17],5.4
same,t1/2,[17],17.1 min
same,Clint,[18],137.4
same,"Dextromethorphan: compound, t1/2 normalized to dextromethorphan control",[18],1
same,t1/2,[18]; monkey,10.1 min
same,Clint,[19],50.5
same,"Dextromethorphan: compound, t1/2 normalized to dextromethorphan control",[19],1.4
same,t1/2,[19],27.5 min
same,Relative Peak Area/Abundance MLM,[20],32.0%
same,Relative Peak Area/Abundance GPLM,[21],20.7%
same,Relative Peak Area/Abundance HLM,[22],32.3%
same,CC50,[23],15 µM
same,CC50,[24],6.2 µM
